We go through 14 compounds from patent US20250228882A1, “ORALLY-BIOAVAILABLE NUCLEOSIDE ANALOGS” (Venatorx Pharmaceuticals, Inc., priority 2022, published 2025).

The structures appear in SMILES notation. Where two headings read alike, the source gives them in different places.

This series in a line: Bidirectional Caco-2 permeability assay. The format is in vitro ADME. Conditions: human. As for the experimental part: The bidirectional permeability of compounds across the Caco-2 cell monolayer was assessed. The Caco-2 model is a widely used in vitro model for small intestinal absorption and potential for efflux. Cell culture. Caco-2 cells were grown in DMEM supplemented with 10% fetal bovine serum (FBS), 1% Penicillin-Streptomycin and 1% MEMNEAA. The cells were incubated at 37° C., 5% CO2/95% air and saturated humidity. After reaching 80-90% confluency, the cells were gently detached with trypsin. Cells at passage 39 were seeded on the 24-well BD insert system at the density of 8×10^4 cells/cm^2 and cultured for 19 days with medium changed every 2-3 days. Measure the transepithelial electrical resistance (TEER) value of each well. The wells can be used only when their TEER values are greater than 600 Ohms/cm^2.
Transport assay. After removing the cell culture medium from the 24-well insert plate, the cells were rinsed with warm transport buffer. Appropriate dosing and receiving solutions were applied to the donor and receiver chambers to initiate the transport assay in apical to basolateral (A to B) or basolateral to apical (B to A) directions (500 and 1300 μL for apical and basolateral wells, respectively). Duplicate wells in each direction were used for the test compound and control compound. The plate was incubated in CO2 incubator at 37° C., with 5% CO2/95% air and saturated humidity without shaking. The sample after 10-minute incubation was used as the To sample, and the sample after 90-minute incubation was used as the T90 sample. To and T90 samples were collected from the donor and receiver side of each well at the designed timepoint, mixed with the transport buffer and acetonitrile/MeOH (1:1, v/v) and the internal standard for LC/MS/MS analysis. All samples were vortexed and centrifuged at 4000 rpm at 4° C. for 15 minutes, diluted with pure water and stored at 4° C. before bioanalysis by LC/MS/MS.
Sample analysis. The concentrations of test compounds and control compounds in Caco-2 cells were quantitatively determined by LC/MS/MS method after protein precipitation.
Calculations. The apparent permeability (Papp, cm/s), efflux ratio (ER) and recovery parameters were calculated for Caco-2 drug transport assay using the following equations: […]
where VR is the solution volume in the receiver chamber (0.4 mL on the apical side, 1.2 mL on the basolateral side); Area is the surface area for the insert membrane, i.e., 0.3 cm^2 for the area of the monolayer; Time is incubation time, expressed in seconds, i. e., 5400 s (90 min) for the current experiment; Co is the initial concentration of test compound or peak area ratio of control compounds in the donor chamber (M); VD is the volume in the donor chambers (0.4 mL on the apical side, 1.2 mL on the basolateral side); CD and CR are the final concentrations of test compounds or peak area ratio of control compounds in donor and receiver chambers, respectively.
Compounds with Papp<1.0 are classified as low permeability, Papp between 1-10 are classified as medium permeability, and Papp>10 are classified as high permeability. An efflux ratio (ER)>2 indicates the compounds are potential substrates for intestinal cell efflux transporters.

[1] abbreviates: Caco-2 monolayer, apical to basolateral, 90-minute incubation, read-out: Papp, A-B.
Setting [2] is: Caco-2 monolayer, basolateral to apical, 90-minute incubation, read-out: Papp, B-A.
[3] abbreviates: Caco-2 monolayer, ER>2 indicates potential efflux substrate, read-out: ER (efflux ratio).

Consider `CC(C)NC(=O)Nc1ncnn2c([C@]3(C#N)O[C@H](COC(=O)CC4CCCCC4)[C@@H](OC(=O)[C@@H](N)C(C)(C)C)[C@H]3O)ccc12` [Compound 4, (2R,3S,4R,5R)-5-cyano-2-((2-cyclohexylacetoxy)methyl)-4-hydroxy-5-(4-(3-isopropylureido)pyrrolo[2,1-f][1,2,4]triazin-7-yl)tetrahydrofuran-3-yl (S)-2-amino-3,3-dimethylbutanoate], for which, where the note is “Caco-2”, the Papp A→B (in general, how fast a substance crosses the layer from the apical side) at 90 min was determined as 2.5 ×10⁻⁶ cm/s; the Papp B→A (in general, how fast a substance crosses the layer from the basolateral side) at 90 min amounted to 3.48 ×10⁻⁶ cm/s; the efflux ratio at 90 min came to 1.37.

`COC(C)(C)C(=O)Nc1ncnn2c([C@]3(C#N)O[C@H](COC(=O)Cc4ccccc4)[C@@H](OC(=O)[C@@H](N)C(C)(C)C)[C@H]3O)ccc12` [Compound 5, (2R,3S,4R,5R)-5-cyano-4-hydroxy-5-(4-(2-methoxy-2-methylpropanamido)pyrrolo[2,1-f][1,2,4]triazin-7-yl)-2-((2-phenylacetoxy)methyl)tetrahydrofuran-3-yl (S)-2-amino-3,3-dimethylbutanoate]: the Papp A→B at 90 min under setting [1] came to 17.7 ×10⁻⁶ cm/s. Moreover, the Papp B→A at 90 min under setting [2] is 16.5 ×10⁻⁶ cm/s. The efflux ratio at 90 min under setting [3] stood at 0.93.

For `CCOC(C)(C)C(=O)Nc1ncnn2c([C@]3(C#N)O[C@H](COC(=O)Cc4ccccc4)[C@@H](OC(=O)[C@@H](N)C(C)(C)C)[C@H]3O)ccc12` [Compound 6, (2R,3S,4R,5R)-5-cyano-5-(4-(2-ethoxy-2-methylpropanamido)pyrrolo[2,1-f][1,2,4]triazin-7-yl)-4-hydroxy-2-((2-phenylacetoxy)methyl)tetrahydrofuran-3-yl (S)-2-amino-3,3-dimethylbutanoate], the Papp A→B at 90 min under setting [1] turned out to be 14 ×10⁻⁶ cm/s. For the same compound, the apparent permeability from basolateral to apical (Papp B→A) at 90 min under setting [2] was 15.4 ×10⁻⁶ cm/s. In addition, the efflux ratio at 90 min under setting [3] came to 1.1.

Consider `CCOC(C)(C)C(=O)Nc1ncnn2c([C@]3(C#N)O[C@H](COC(=O)CC4CCCCC4)[C@@H](OC(=O)[C@@H](N)C(C)(C)C)[C@H]3O)ccc12` [Compound 7, (2R,3S,4R,5R)-5-cyano-2-((2-cyclohexylacetoxy)methyl)-5-(4-(2-ethoxy-2-methylpropanamido)pyrrolo[2,1-f][1,2,4]triazin-7-yl)-4-hydroxytetrahydrofuran-3-yl (S)-2-amino-3,3-dimethylbutanoate], for which, where the note is “Caco-2”, the Papp A→B at 90 min was 7.82 ×10⁻⁶ cm/s, the Papp B→A at 90 min was found to be 8.41 ×10⁻⁶ cm/s and the efflux ratio at 90 min was 1.07.

Turning to `CCC(CC)C(=O)Nc1ncnn2c([C@]3(C#N)O[C@H](COC(=O)Cc4ccccc4)[C@@H](OC(=O)[C@@H](N)C(C)(C)C)[C@H]3O)ccc12` [Compound 8, (2R,3S,4R,5R)-5-cyano-5-(4-(2-ethylbutanamido)pyrrolo[2,1-f][1,2,4]triazin-7-yl)-4-hydroxy-2-((2-phenylacetoxy)methyl)tetrahydrofuran-3-yl (S)-2-amino-3,3-dimethylbutanoate], the Papp A→B at 90 min under setting [1] was determined as 0.52 ×10⁻⁶ cm/s. In addition, the Papp B→A at 90 min under setting [2] worked out at 0.13 ×10⁻⁶ cm/s. Further, under setting [3], the efflux ratio at 90 min is 0.26.

For the compound `CC[C@H](C)C(=O)Nc1ncnn2c([C@]3(C#N)O[C@H](COC(=O)Cc4ccccc4)[C@@H](OC(=O)[C@@H](N)C(C)(C)C)[C@H]3O)ccc12` [Compound 10, (2R,3S,4R,5R)-5-cyano-4-hydroxy-5-(4-((S)-2-methylbutanamido)pyrrolo[2,1-f][1,2,4]triazin-7-yl)-2-((2-phenylacetoxy)methyl)tetrahydrofuran-3-yl (S)-2-amino-3,3-dimethylbutanoate], the Papp A→B at 90 min under setting [1] is 0.59 ×10⁻⁶ cm/s. For the same compound, the Papp B→A at 90 min under setting [2] is 0.1 ×10⁻⁶ cm/s. The efflux ratio at 90 min under setting [3] is 0.17.

In the case of `CC[C@@H](C)C(=O)Nc1ncnn2c([C@]3(C#N)O[C@H](COC(=O)CC4CCCCC4)[C@@H](OC(=O)[C@@H](N)C(C)(C)C)[C@H]3O)ccc12` [Compound 12, (2R,3S,4R,5R)-5-cyano-2-((2-cyclohexylacetoxy)methyl)-4-hydroxy-5-(4-((R)-2-methylbutanamido)pyrrolo[2,1-f][1,2,4]triazin-7-yl)tetrahydrofuran-3-yl (S)-2-amino-3,3-dimethylbutanoate], where the note is “Caco-2”, the Papp A→B at 90 min was 3.48 ×10⁻⁶ cm/s, the Papp B→A at 90 min was found to be 25.5 ×10⁻⁶ cm/s and the efflux ratio at 90 min amounted to 7.34.

Regarding `CC[C@H](C)C(=O)Nc1ncnn2c([C@]3(C#N)O[C@H](COC(=O)CC4CCCCC4)[C@@H](OC(=O)[C@@H](N)C(C)(C)C)[C@H]3O)ccc12` [Compound 13, (2R,3S,4R,5R)-5-cyano-2-((2-cyclohexylacetoxy)methyl)-4-hydroxy-5-(4-((S)-2-methylbutanamido)pyrrolo[2,1-f][1,2,4]triazin-7-yl)tetrahydrofuran-3-yl (S)-2-amino-3,3-dimethylbutanoate], where the note is “Caco-2”, the Papp A→B at 90 min stood at 3.16 ×10⁻⁶ cm/s, the Papp B→A at 90 min was determined as 30.5 ×10⁻⁶ cm/s and the efflux ratio at 90 min was determined as 9.68.

For `CC(C)[C@@H](C)C(=O)Nc1ncnn2c([C@]3(C#N)O[C@H](COC(=O)CC4CCCCC4)[C@@H](OC(=O)[C@@H](N)C(C)(C)C)[C@H]3O)ccc12` [Compound 14, (2R,3S,4R,5R)-5-cyano-2-((2-cyclohexylacetoxy)methyl)-5-(4-((R)-2,3-dimethylbutanamido)pyrrolo[2,1-f][1,2,4]triazin-7-yl)-4-hydroxytetrahydrofuran-3-yl (S)-2-amino-3,3-dimethylbutanoate], where the note is “Caco-2”, the apparent permeability from apical to basolateral (Papp A→B) at 90 min is 1.96 ×10⁻⁶ cm/s, the Papp B→A at 90 min is 1.38 ×10⁻⁶ cm/s and the efflux ratio at 90 min was 0.7.

On to `CC(C)[C@H](C)C(=O)Nc1ncnn2c([C@]3(C#N)O[C@H](COC(=O)CC4CCCCC4)[C@@H](OC(=O)[C@@H](N)C(C)(C)C)[C@H]3O)ccc12` [Compound 15, (2R,3S,4R,5R)-5-cyano-2-((2-cyclohexylacetoxy)methyl)-5-(4-((S)-2,3-dimethylbutanamido)pyrrolo[2,1-f][1,2,4]triazin-7-yl)-4-hydroxytetrahydrofuran-3-yl (S)-2-amino-3,3-dimethylbutanoate], for which, where the note is “Caco-2”, the Papp A→B at 90 min stood at 1.93 ×10⁻⁶ cm/s, the Papp B→A at 90 min is 1.76 ×10⁻⁶ cm/s and the efflux ratio at 90 min was found to be 0.91.

`CC(C)[C@@H](C)C(=O)Nc1ncnn2c([C@]3(C#N)O[C@H](COC(=O)Cc4ccccc4)[C@@H](OC(=O)[C@@H](N)C(C)(C)C)[C@H]3O)ccc12` [Compound 21, (2R,3S,4R,5R)-5-cyano-5-(4-((R)-2,3-dimethylbutanamido)pyrrolo[2,1-f][1,2,4]triazin-7-yl)-4-hydroxy-2-((2-phenylacetoxy)methyl)tetrahydrofuran-3-yl (S)-2-amino-3,3-dimethylbutanoate]: under setting [1], the apical-to-basolateral permeability (Papp A→B) at 90 min was 3.1 ×10⁻⁶ cm/s. Besides, under setting [2], the Papp B→A at 90 min is 21 ×10⁻⁶ cm/s. Further, the efflux ratio at 90 min under setting [3] turned out to be 6.77.

For `CC(C)[C@H](C)C(=O)Nc1ncnn2c([C@]3(C#N)O[C@H](COC(=O)Cc4ccccc4)[C@@H](OC(=O)[C@@H](N)C(C)(C)C)[C@H]3O)ccc12` [Compound 22, (2R,3S,4R,5R)-5-cyano-5-(4-((S)-2,3-dimethylbutanamido)pyrrolo[2,1-f][1,2,4]triazin-7-yl)-4-hydroxy-2-((2-phenylacetoxy)methyl)tetrahydrofuran-3-yl (S)-2-amino-3,3-dimethylbutanoate], the Papp A→B at 90 min under setting [1] amounted to 2.79 ×10⁻⁶ cm/s. The Papp B→A at 90 min under setting [2] stood at 6.1 ×10⁻⁶ cm/s. The efflux ratio at 90 min under setting [3] is 2.19.

Consider `CC(C)NC(=O)Nc1ncnn2c([C@]3(C#N)O[C@H](COC(=O)Cc4ccccc4)[C@@H](OC(=O)[C@@H](N)C(C)(C)C)[C@H]3O)ccc12` [Compound 29, (2R,3S,4R,5R)-5-cyano-4-hydroxy-5-(4-(3-isopropylureido)pyrrolo[2,1-f][1,2,4]triazin-7-yl)-2-((2-phenylacetoxy)methyl)tetrahydrofuran-3-yl (S)-2-amino-3,3-dimethylbutanoate], for which, under setting [1], the Papp A→B at 90 min amounted to 1.69 ×10⁻⁶ cm/s. Besides, the Papp B→A at 90 min under setting [2] amounted to 19.6 ×10⁻⁶ cm/s. Further, the efflux ratio at 90 min under setting [3] is 11.6.

`CC(=O)OCOC(=O)Nc1ncnn2c([C@]3(C#N)O[C@H](COC(=O)Cc4ccccc4)[C@@H](OC(=O)[C@@H](N)C(C)(C)C)[C@H]3O)ccc12` [Compound 30, (2R,3S,4R,5R)-5-(4-(((acetoxymethoxy)carbonyl)amino)pyrrolo[2,1-f][1,2,4]triazin-7-yl)-5-cyano-4-hydroxy-2-((2-phenylacetoxy)methyl)tetrahydrofuran-3-yl (S)-2-amino-3,3-dimethylbutanoate]: under setting [1], the Papp A→B at 90 min came to 0.09 ×10⁻⁶ cm/s. In addition, the Papp B→A at 90 min under setting [2] amounted to 3.11 ×10⁻⁶ cm/s. In addition, the efflux ratio at 90 min under setting [3] is 34.6.
